Measured values reported in US9702875B2 (priority 2006, dated 2017).
Where a SMILES comes first, the peptide text is derived from it. The star is where a group is joined. Cbz = O=C(OCc1ccccc1)*

Experiments:
ERCC1 protein isoforms = assay: Western blot of ERCC1 protein isoforms after proteasome inhibition; format: cell-based, human; details: 2 μM for 24 h
Experimental: Proteins were extracted by lysis in RIPA buffer (50 mM Tris, 150 mM NaCl, 5 mM EDTA, 0.5% sodium deoxycholic acid, 0.5% NP-40, 0.1% SDS) supplemented with a protease inhibitor cocktail (Complete; Roche Molecular). For nucleus and cytoplasm protein, a first extraction and separation was done with a buffer containing 10 mM HEPES, 10 mM KCl, 1 mM DTT, 1 mM PMSF and protease inhibitor cocktail supplemented with 0.3% NP40. The nucleus fraction was next resuspended in a buffer containing 20 mM HEPES and 400 mM NaCl. Protein were then separated by SDS-PAGE and transferred to nitrocellulose membranes by the iBlot® 7-Minute Blotting System (Invitrogen). Blots were incubated with primary and secondary peroxidase-conjugated antibodies and chemiluminescent detection was done using the Dura HRP Substrate (Thermo scientific).
For proteasome inhibition, cells were treated with MG132 (Merck) at 2 μM for 24 h.

[1] = system: cell lines without ERCC1-202 isoform expression (A549 ERCC1-deficient); assay: Cell cycle / DNA content by flow cytometry after cisplatin; format: cell-based, human; details: 30 and 300 nM for 48 hours
Experimental: To study effect of cisplatin on cell cycle arrest, cells were treated with 30 nM or 300 nM of cisplatin for 48 h. For high DNA content analysis, cells were blocked in G2/M cell cycle phase with Karyomax colcemid solution (Gibco-Invitrogen) at 0.1 μg/ml for 6 h.
DNA content was determined in ethanol-fixed cells, stained with propidium iodide and analyzed using a Becton Dickinson FACScalibur flow cytometer and the CellQuest Pro software.

SMILES	ERCC1 isoform protein expression level after proteasome inhibition (ERCC1 protein isoforms)	cells blocked in G2/M cell cycle phase [1]
CC(C)C[C@@H](C=O)NC(=O)[C@H](CC(C)C)NC(=O)[C@H](CC(C)C)NC(=O)OCc1ccccc1 [MG132] (Cbz-Leu-Leu-Leu-aldehyde)	increase in ERCC1-201, -203 and -204 expression level	–
N.N.[Cl][Pt][Cl] [cisplatin]	–	60-80%
